According to patent US20230339866A1, “Quinazoline compounds and the use thereof in the treatment of cancer” (TROBIO THERAPEUTICS PTY LTD, priority 2020, published 2023):

Key:
[1] = tested on: A549 (NSCLC); experiment: Anti-proliferative activity (Cell-Titre luminescence) against A549 non-small cell lung cancer cells; type: cell-based; conditions: Homo sapiens, A549, 72 h, 72 h exposure, Cell-Titre luminescent reagent
Description: (§1) The ability of compounds of the invention to inhibit the proliferation of cancer cells representative of non-small cell lung cancer and ovarian cancer (Table 2), pancreatic cancer, colorectal cancer and prostate cancer (Table 3) was assessed. Briefly, a predetermined number of cells as calculated from cell growth assays for each of the cell lines employed were seeded into their respective culture medium (using ATCC culture parameters—http://www.atcc.org) and cultured for 24 h at 37° C. and 5% CO2 in 96-well culture plates. Once attached, each cell line was then exposed to various concentrations of each respective analogue (30, 10, 3, 1, 0.3 and 0.1 μM), cultured for a further 72 h and exposed to Cell-Titre luminescent reagent (100 μL/well) for a further 30 min. Luminescence was captured using an EnVision multilabel reader and the data for each analogue concentration compared against no treatment control. Cell viability was normalised to control (vehicle alone) and dose response curves, and half maximal effective concentration (EC50) values were determined using Graph Pad Prism 6 (nonlinear regression sigmoidal dose-response variable slope).

[2] = tested on: A2780 (ovarian); experiment: Anti-proliferative activity (Cell-Titre luminescence) against A2780 ovarian cancer cells; type: cell-based; conditions: Homo sapiens, A2780, 72 h, 72 h exposure, Cell-Titre luminescent reagent
Description: as §1

Structure (SMILES) | IC50 [1] [µM] | IC50 [2] [µM]
CN(C)CCCNc1nc(-c2cc[nH]c2)nc2ccccc12 [Compound 102, N^1-(2-(1H-pyrrol-3-yl)quinazolin-4-yl)-N^3,N^3-dimethylpropane-1,3-diamine] | 7.45 | 1.32
NCCCNc1nc(NCCc2cccc(C(F)(F)F)c2)nc2ccccc12 [Compound 119, N^4-(3-aminopropyl)-N^2-(3-(trifluoromethyl)phenethyl)quinazoline-2,4-diamine] | 2.46 | 0.759
OCCNc1nc(-n2cccc2)nc2ccccc12 [Compound 25, 2-((2-(1H-pyrrol-1-yl)quinazolin-4-yl)amino)ethan-1-ol] | > 30 | > 30
OCCNc1nc(NCCc2cccc(C(F)(F)F)c2)nc2ccccc12 [Compound 36, 2-((2-((3-(trifluoromethyl)phenethyl)amino)quinazolin-4-yl)amino)ethan-1-ol] | 2.67 | 2.32
COCCNc1nc(NCCc2cccc(C(F)(F)F)c2)nc2ccccc12 [Compound 116, N^4-(2-methoxyethyl)-N^2-(3-(trifluoromethyl)phenethyl)quinazoline-2,4-diamine] | 3.6 | 1.39
CC(C)C(CNc1nc(N2CCCC2)nc2ccccc12)N1CCN(C)CC1 (stereo not drawn) [Compound 8, N-(3-methyl-2-(4-methylpiperazin-1-yl)butyl)-2-(pyrrolidin-1-yl)quinazolin-4-amine] | > 30 | > 30
OCCCNc1nc(-c2cc[nH]c2)nc2ccccc12 [Compound 110, 3-((2-(1H-pyrrol-3-yl)quinazolin-4-yl)amino)propan-1-ol] | 9.19 | 4.87
OCCNc1nc(NCCc2ccc(F)cc2)nc2ccccc12 [Compound 91, 2-((2-((4-fluorophenethyl)amino)quinazolin-4-yl)amino)ethan-1-ol] | 6.76 | 5.42
CN(C)CCCNc1nc(-n2cccc2)nc2ccccc12 [Compound 103, N^1-(2-(1H-pyrrol-1-yl)quinazolin-4-yl)-N^3,N^3-dimethylpropane-1,3-diamine] | 24.1 | 16.5
OCCNc1nc(-c2ccoc2)nc2ccccc12 [Compound 23, 2-((2-(furan-3-yl)quinazolin-4-yl)amino)ethan-1-ol] | > 30 | > 30
NCCNc1nc(NCCc2cccc(C(F)(F)F)c2)nc2ccccc12 [Compound 118, N^4-(2-aminoethyl)-N^2-(3-(trifluoromethyl)phenethyl)quinazoline-2,4-diamine] | 4.05 | 1.92
CN(C)CCNc1nc(-n2cccc2)nc2ccccc12 [Compound 99, N^1-(2-(1H-pyrrol-1-yl)quinazolin-4-yl)-N^2,N^2-dimethylethane-1,2-diamine] | 22.2 | 10.3
c1csc(-c2nc(NCCc3c[nH]cn3)c3ccccc3n2)c1 [Compound 104, N-(2-(1H-imidazol-4-yl)ethyl)-2-(thiophen-2-yl)quinazolin-4-amine] | > 30 | > 30
OCCNc1nc(N2CCCC2)nc2ccccc12 [Compound 24, 2-((2-(pyrrolidin-1-yl)quinazolin-4-yl)amino)ethan-1-ol] | > 30 | > 30
OCCCNc1nc(-c2ccc[nH]2)nc2ccccc12 [Compound 109, 3-((2-(1H-pyrrol-2-yl)quinazolin-4-yl)amino)propan-1-ol] | 21.1 | 13
c1ccc2c(NCCc3c[nH]cn3)nc(-n3cccc3)nc2c1 [Compound 108, N-(2-(1H-imidazol-4-yl)ethyl)-2-(1H-pyrrol-1-yl)quinazolin-4-amine] | 9.53 | 5.79
OCCNc1nc(-c2ccsc2)nc2ccccc12 [Compound 19, 2-((2-(thiophen-3-yl)quinazolin-4-yl)amino)ethan-1-ol] | > 30 | > 30
COc1ccc(CCNc2nc(NCCO)c3ccccc3n2)cc1 [Compound 39, 2-((2-((4-methoxyphenethyl)amino)quinazolin-4-yl)amino)ethan-1-ol] | > 30 | 11.9

Further lines, results first:

IC50 [1] [µM] | IC50 [2] [µM] | Structure (SMILES)
14.1 | 12.8 | COc1ccc(CNc2nc(NCCO)c3ccccc3n2)cc1 [Compound 34, 2-((2-((4-methoxybenzyl)amino)quinazolin-4-yl)amino)ethan-1-ol]
3.19 | 0.66 | CN1CCN(CCNc2nc(NCCc3ccc(Cl)c(Cl)c3)nc3ccccc23)CC1 [Compound 135, N^2-(3,4-dichlorophenethyl)-N^4-(2-(4-methylpiperazin-1-yl)ethyl)quinazoline-2,4-diamine]
8.77 | 6.87 | COc1ccc(CNc2nc(NCCN3CCN(C)CC3)c3ccccc3n2)cc1 [Compound 49, N^2-(4-methoxybenzyl)-N^4-(2-(4-methylpiperazin-1-yl)ethyl)quinazoline-2,4-diamine]
4.94 | 5.79 | CC(C)C(CNc1nc(-n2cccc2)nc2ccccc12)N1CCN(C)CC1 (stereo not drawn) [Compound 9, N-(3-methyl-2-(4-methylpiperazin-1-yl)butyl)-2-(1H-pyrrol-1-yl)quinazolin-4-amine]
7.4 | 4.52 | COc1cccc(CNc2nc(NCCN3CCN(C)CC3)c3ccccc3n2)c1 [Compound 48, N^2-(3-methoxybenzyl)-N^4-(2-(4-methylpiperazin-1-yl)ethyl)quinazoline-2,4-diamine]
> 30 | 22.5 | CN1CCN(CCNc2nc(N3CCCC3)nc3ccccc23)CC1 [Compound 16, N-(2-(4-methylpiperazin-1-yl)ethyl)-2-(pyrrolidin-1-yl)quinazolin-4-amine]
> 30 | > 30 | CN1CCN(CCNc2nc(-c3ccco3)nc3ccccc23)CC1 [Compound 14, 2-(furan-2-yl)-N-(2-(4-methylpiperazin-1-yl)ethyl)quinazolin-4-amine]
> 30 | > 30 | COc1cc(CCNc2nc(NCCN3CCN(C)CC3)c3ccccc3n2)cc(OC)c1OC [Compound 142, N^4-(2-(4-methylpiperazin-1-yl)ethyl)-N^2-(3,4,5-trimethoxyphenethyl)quinazoline-2,4-diamine]
5.57 | 4.59 | OCCCNc1nc(NCCc2cccc(F)c2)nc2ccccc12 [Compound 94, 3-((2-((3-fluorophenethyl)amino)quinazolin-4-yl)amino)propan-1-ol]
5.9 | 7.59 | CN(C)CCNc1nc(NCCc2cccc(F)c2)nc2ccccc12 [Compound 67, N^4-(2-(dimethylamino)ethyl)-N^2-(3-fluorophenethyl)quinazoline-2,4-diamine]
3.87 | 5.19 | OCCNc1nc(NCCc2cccc(F)c2)nc2ccccc12 [Compound 90, 2-((2-((3-fluorophenethyl)amino)quinazolin-4-yl)amino)ethan-1-ol]
8.79 | 2.54 | FC(F)(F)c1cccc(CCNc2nc(NCCN3CCOCC3)c3ccccc3n2)c1 [Compound 113, N^4-(2-morpholinoethyl)-N^2-(3-(trifluoromethyl)phenethyl)quinazoline-2,4-diamine]
14.8 | 2.5 | CN1CCN(CCNc2nc(NCCc3cccc(C#N)c3)nc3ccccc23)CC1 [Compound 126, 3-(2-((4-((2-(4-methylpiperazin-1-yl)ethyl)amino)quinazolin-2-yl)amino)ethyl)benzonitrile]
4.45 | 7.16 | CCc1ccc(Nc2nc(NCCN3CCN(C)CC3)c3ccccc3n2)cc1 [Compound 55, N^2-(4-ethylphenyl)-N^4-(2-(4-methylpiperazin-1-yl)ethyl)quinazoline-2,4-diamine]
18.4 | 8.55 | CN1CCN(CCNc2nc(NCc3ccccc3)nc3ccccc23)CC1 [Compound 45, N^2-benzyl-N^4-(2-(4-methylpiperazin-1-yl)ethyl)quinazoline-2,4-diamine]
8.24 | 10.2 | CN1CCN(CCNc2nc(-c3ccc[nH]3)nc3ccccc23)CC1 [Compound 12, N-(2-(4-methylpiperazin-1-yl)ethyl)-2-(1H-pyrrol-2-yl)quinazolin-4-amine]
13.2 | 7.26 | COc1cc(CCNc2nc(NCCN3CCN(C)CC3)c3ccccc3n2)cc(OC)c1 [Compound 140, N^2-(3,5-dimethoxyphenethyl)-N^4-(2-(4-methylpiperazin-1-yl)ethyl)quinazoline-2,4-diamine]
2.52 | 1.24 | FC(F)(F)c1cccc(CCNc2nc(NCCN3CCCC3)c3ccccc3n2)c1 [Compound 115, N^4-(2-(pyrrolidin-1-yl)ethyl)-N^2-(3-(trifluoromethyl)phenethyl)quinazoline-2,4-diamine]
3.36 | 2.38 | CN1CCN(CCNc2nc(NCCc3ccccc3Cl)nc3ccccc23)CC1 [Compound 123, N^2-(2-chlorophenethyl)-N^4-(2-(4-methylpiperazin-1-yl)ethyl)quinazoline-2,4-diamine]
6.27 | 4.34 | CN1CCN(CCNc2nc(Nc3ccccc3)nc3ccccc23)CC1 [Compound 40, N^4-(2-(4-methylpiperazin-1-yl)ethyl)-N^2-phenylquinazoline-2,4-diamine]
> 30 | 18.2 | COc1cccc(CCNc2nc(NCCN3CCN(C)CC3)c3ccccc3n2)c1 [Compound 53, N^2-(3-methoxyphenethyl)-N^4-(2-(4-methylpiperazin-1-yl)ethyl)quinazoline-2,4-diamine]
